{"source": "paper PMC5068966", "about": "“Lysosomal membrane glycoproteins bind cholesterol and contribute to lysosomal cholesterol export” (eLife, 2016)", "key": {"[1]": {"biological_target": "T1, LAMP2 (Homo sapiens, UniProt P13473)", "T1 sequence (P13473 29-375)": "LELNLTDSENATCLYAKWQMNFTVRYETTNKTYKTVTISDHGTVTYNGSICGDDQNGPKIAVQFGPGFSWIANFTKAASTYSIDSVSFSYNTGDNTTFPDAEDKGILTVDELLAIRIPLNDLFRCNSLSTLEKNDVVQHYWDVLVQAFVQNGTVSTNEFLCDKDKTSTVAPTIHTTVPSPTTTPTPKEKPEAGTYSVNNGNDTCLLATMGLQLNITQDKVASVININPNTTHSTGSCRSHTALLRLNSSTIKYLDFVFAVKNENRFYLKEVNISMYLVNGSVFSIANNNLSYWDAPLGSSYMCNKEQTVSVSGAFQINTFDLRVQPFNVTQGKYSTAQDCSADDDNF", "assay": "competition with […] 3H-cholesterol on purified protein", "assay_type": "binding", "design": "soluble lumenal domain, human LAMP2 (1–375)"}, "[2]": {"biological_target": "T1, LAMP2", "assay": "3H-cholesterol binding to purified His-tagged protein on Ni-NTA, with cold competition; bound cholesterol also identified by TLC and LC/MS", "design": "soluble lumenal domain, human LAMP2 (1–375); also domain 1 (1–231) and domain 2"}, "[3]": {"biological_target": "T2, LAMP1 (Homo sapiens, UniProt P11279)", "T2 construct": "soluble lumenal domain, human LAMP1(1–382)", "T2 sequence (P11279 1-382)": "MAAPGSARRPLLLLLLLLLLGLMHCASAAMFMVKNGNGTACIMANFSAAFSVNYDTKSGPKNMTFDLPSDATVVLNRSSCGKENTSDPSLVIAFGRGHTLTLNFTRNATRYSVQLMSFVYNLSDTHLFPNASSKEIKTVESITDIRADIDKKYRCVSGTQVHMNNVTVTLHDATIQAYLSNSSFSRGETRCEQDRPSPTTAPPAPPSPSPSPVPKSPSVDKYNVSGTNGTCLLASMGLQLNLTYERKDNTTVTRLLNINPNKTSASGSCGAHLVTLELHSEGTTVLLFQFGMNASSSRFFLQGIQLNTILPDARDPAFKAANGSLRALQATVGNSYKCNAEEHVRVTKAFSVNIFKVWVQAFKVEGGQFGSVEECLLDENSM", "assay": "3H-cholesterol binding to purified His-tagged protein on Ni-NTA"}, "[4]": {"biological_target": "T1, LAMP2", "assay": "single-concentration ([…]) competition with 3H-cholesterol on purified protein", "assay_type": "binding", "design": "soluble lumenal domain, human LAMP2 (1–375)"}, "[5]": {"biological_target": "AF647 labeled-NPC2 (UniProt P61916)", "sequence (P61916 20-151)": "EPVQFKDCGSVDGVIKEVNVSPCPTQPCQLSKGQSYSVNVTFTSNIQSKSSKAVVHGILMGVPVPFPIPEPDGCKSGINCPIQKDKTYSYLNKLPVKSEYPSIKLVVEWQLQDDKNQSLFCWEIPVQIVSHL", "assay": "MST; 6 nM AF647 labelled NPC2, 16 two-fold dilutions of soluble LAMP2 or RNase B; 50 mM MES pH 5.5, 150 mM NaCl, 0.004% NP-40; in 1 µM cholesterol sulfate"}, "[6]": {"biological_target": "AF647 labeled His6-NPC1 N-terminal domain (UniProt O15118)", "sequence (O15118 whole entry, the tested form may be a part)": "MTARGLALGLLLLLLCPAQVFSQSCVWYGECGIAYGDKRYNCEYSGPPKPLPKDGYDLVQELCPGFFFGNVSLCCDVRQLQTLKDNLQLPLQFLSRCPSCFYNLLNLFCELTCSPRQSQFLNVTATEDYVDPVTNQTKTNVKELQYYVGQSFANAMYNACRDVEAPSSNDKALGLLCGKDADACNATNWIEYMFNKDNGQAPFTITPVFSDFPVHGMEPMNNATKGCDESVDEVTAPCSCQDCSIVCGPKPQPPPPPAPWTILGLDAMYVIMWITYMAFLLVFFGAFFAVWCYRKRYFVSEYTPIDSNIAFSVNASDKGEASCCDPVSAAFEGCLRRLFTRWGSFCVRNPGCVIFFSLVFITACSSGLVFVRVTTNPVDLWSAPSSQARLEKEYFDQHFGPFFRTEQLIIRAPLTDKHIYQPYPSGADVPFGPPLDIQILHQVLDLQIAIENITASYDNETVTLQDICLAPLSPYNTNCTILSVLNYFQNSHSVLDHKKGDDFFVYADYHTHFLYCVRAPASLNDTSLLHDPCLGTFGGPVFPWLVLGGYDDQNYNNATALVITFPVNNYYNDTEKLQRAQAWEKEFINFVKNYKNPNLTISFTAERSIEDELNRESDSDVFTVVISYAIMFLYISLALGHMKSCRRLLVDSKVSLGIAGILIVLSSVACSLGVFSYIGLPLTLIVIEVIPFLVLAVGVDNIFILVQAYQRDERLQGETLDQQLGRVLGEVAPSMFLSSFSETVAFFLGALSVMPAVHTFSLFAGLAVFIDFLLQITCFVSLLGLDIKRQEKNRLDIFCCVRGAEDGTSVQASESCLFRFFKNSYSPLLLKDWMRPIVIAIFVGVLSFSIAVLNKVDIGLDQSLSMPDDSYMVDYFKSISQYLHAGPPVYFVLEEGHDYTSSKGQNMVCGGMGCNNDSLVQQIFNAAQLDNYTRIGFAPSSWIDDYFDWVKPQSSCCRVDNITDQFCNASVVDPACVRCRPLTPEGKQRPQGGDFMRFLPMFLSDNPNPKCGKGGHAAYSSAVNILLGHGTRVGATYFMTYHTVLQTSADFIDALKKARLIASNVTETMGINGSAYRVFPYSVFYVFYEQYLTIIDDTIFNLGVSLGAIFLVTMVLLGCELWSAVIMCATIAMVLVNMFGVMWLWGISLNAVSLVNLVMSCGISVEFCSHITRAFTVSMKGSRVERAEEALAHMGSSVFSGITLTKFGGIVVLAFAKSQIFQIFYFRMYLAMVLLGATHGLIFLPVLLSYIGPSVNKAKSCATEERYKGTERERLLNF", "assay": "MST; 6 nM AF647 labelled protein, 16 two-fold dilutions of soluble LAMP2; 50 mM MES pH 5.5, 150 mM NaCl, 0.004% NP-40; in 1 µM cholesterol; fluorescence read for NPC1 N-terminal domain, thermophoresis for RNase B"}, "[7]": {"biological_target": "T1, LAMP2", "assay": "direct 3H-25-hydroxycholesterol binding to purified protein; competition with 3H-cholesterol", "design": "soluble lumenal domain, human LAMP2 (1–375)"}}, "data": [{"compound": "CC(C)CCC[C@@H](C)[C@H]1CC[C@H]2[C@@H]3C(=O)C=C4C[C@@H](O)CC[C@]4(C)[C@H]3CC[C@]12C", "note": "[7-ketocholesterol]", "values": [{"measurement": "competition with 50 nM 3H-cholesterol on purified protein", "setting": "[1]", "value": "7-ketocholesterol (Figure 2D), but not cholesterol sulfate (Figure 2A), compete with ^3H-cholesterol for binding to LAMP2 protein"}]}, {"compound": "CC(C)CCC[C@@H](C)[C@H]1CC[C@H]2[C@@H]3CC=C4C[C@@H](O)CC[C@]4(C)[C@H]3CC[C@]12C", "note": "[cholesterol]", "values": [{"measurement": "3H-cholesterol binding to purified His-tagged protein on Ni-NTA, with cold compe", "setting": "[2]", "value": "Soluble, purified, LAMP1 and LAMP2 proteins appeared to bind ^3H-cholesterol saturably"}, {"measurement": "3H-cholesterol binding to purified His-tagged protein on Ni-NTA", "setting": "[3]", "value": "Soluble, purified, LAMP1 and LAMP2 proteins appeared to bind ^3H-cholesterol saturably"}]}, {"compound": "CC(C)C(O)CC[C@@H](C)[C@H]1CC[C@H]2[C@@H]3CC=C4C[C@@H](O)CC[C@]4(C)[C@H]3CC[C@]12C", "note": "(stereo partly shown) [24-HC, 24-hydroxycholesterol]", "values": [{"measurement": "single-concentration (30 μM) competition with 3H-cholesterol on purified protein", "setting": "[4]", "value": "^3H-cholesterol binding was competed by unlabeled cholesterol, 24-hydroxycholesterol, but not cholesterol sulfate (Figure 1G)"}]}, {"compound": "full length, soluble human LAMP2 (1-375) (from UniProt P13473 29-375) (domain or fragment)", "values": [{"measurement": "Kd", "setting": "[5]", "value": 0.122, "unit": "µM"}, {"measurement": "Kd", "setting": "[6]", "value": 0.006, "unit": "µM"}]}, {"compound": "C[C@H](CCCC(C)(C)O)[C@H]1CC[C@H]2[C@@H]3CC=C4C[C@@H](O)CC[C@]4(C)[C@H]3CC[C@]12C", "note": "[25-hydroxycholesterol]", "values": [{"measurement": "direct 3H-25-hydroxycholesterol binding to purified protein; competition with 3H", "setting": "[7]", "value": "LAMP2 also bound ^3H-25-hydroxycholesterol with similar apparent affinity as cholesterol; binding was competed by excess cold 25-hydroxycholesterol"}]}]}
